According to publication PMC8449129, “Single tracer-based protocol for broad-spectrum kinase profiling in live cells with NanoBRET” (STAR Protocols, 2021):

What was measured:
Test in all cases: cell-based
Set-up in all cases: NanoBRET live-cell target engagement; % occupancy from displacement of tracer K10 on NanoLuc-kinase fusions, mean n=3
Settings in all cases: HEK293, read-out: % inhibition
CDK20 = CDK20 (Homo sapiens, UniProt Q8IZL9)
Protocol: (§1) • 18. Prepare 10× test compounds in OptiMEM • a. Dilute the test compound to 1000× in DMSO (or the test compound solvent). […] Add 10μL per well of 10× test compound or 10μL of the DMSO control to the 96-well plates containing cells with 1× tracer. Mix on orbital shaker for 15 s at 900 rpm. • 20. Incubate the plate at 37°C + 5% CO2 incubator for 2hr. Allow plate to cool to RT for ∼15 min, then proceed to NanoBRET^TM Assay section below. • 21. Immediately before the BRET measurements, prepare 3× Complete NanoBRET^TM Nano-Glo® Substrate in OptiMEM without serum or phenol red. […] Mix gently by inverting 5–10 times in a conical tube. (The final concentration of Extracellular NanoLuc inhibitor in the 3× solution is 60 μM, for a working concentration of 20 μM.) • a. Note: 3× solutions should be used within 1.5 h after preparation. • 22. […] Incubate 2–3 min at RT. Following addition of NanoBRET^TM Nano-Glo® Substrate, measure donor emission (e.g., 450 nm) and acceptor emission (e.g., 610 nm or 630 nm) using a NanoBRET™-compatible luminometer. Fractional occupancy Quantitation • 2. Determine Fractional Occupancy with the following equation; % Occupancy = [1 – (X – Z)/( Y – Z)]∗100 • Where: • X = BRET in the presence of the test compound and tracer, • Y = BRET in the presence of the 100% BRET Control (Tracer + DMSO) • Z = BRET for the Zero BRET Control, e.g., • a. BRET from the NanoLuc Control Vector • b. BRET from Kinase/NanoLuc fusion + saturating dose of control test compound.

CDK18 = CDK18 (Homo sapiens, UniProt Q07002)
Protocol: as §1

MELK = MELK (Homo sapiens, UniProt Q14680)
MELK, sequence (Q14680 whole entry): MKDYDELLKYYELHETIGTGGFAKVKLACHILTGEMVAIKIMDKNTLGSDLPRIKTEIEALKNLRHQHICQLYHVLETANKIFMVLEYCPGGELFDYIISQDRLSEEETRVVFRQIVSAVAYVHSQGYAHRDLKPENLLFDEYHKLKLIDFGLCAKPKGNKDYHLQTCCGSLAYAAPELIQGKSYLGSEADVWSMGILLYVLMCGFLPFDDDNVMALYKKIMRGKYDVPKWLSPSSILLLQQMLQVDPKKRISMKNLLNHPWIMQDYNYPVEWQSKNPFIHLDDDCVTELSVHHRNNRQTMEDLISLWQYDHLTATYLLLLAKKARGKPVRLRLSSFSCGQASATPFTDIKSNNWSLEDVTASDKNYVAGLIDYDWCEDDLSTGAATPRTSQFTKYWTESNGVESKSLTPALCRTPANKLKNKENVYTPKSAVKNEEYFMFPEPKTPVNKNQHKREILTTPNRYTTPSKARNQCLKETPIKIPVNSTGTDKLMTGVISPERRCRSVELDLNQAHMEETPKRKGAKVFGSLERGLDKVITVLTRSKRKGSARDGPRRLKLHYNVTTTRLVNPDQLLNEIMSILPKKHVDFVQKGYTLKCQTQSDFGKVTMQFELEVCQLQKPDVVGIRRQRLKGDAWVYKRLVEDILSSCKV
Protocol: as §1

ULK1 = ULK1 (Homo sapiens, UniProt O75385)
ULK1, sequence (O75385 whole entry): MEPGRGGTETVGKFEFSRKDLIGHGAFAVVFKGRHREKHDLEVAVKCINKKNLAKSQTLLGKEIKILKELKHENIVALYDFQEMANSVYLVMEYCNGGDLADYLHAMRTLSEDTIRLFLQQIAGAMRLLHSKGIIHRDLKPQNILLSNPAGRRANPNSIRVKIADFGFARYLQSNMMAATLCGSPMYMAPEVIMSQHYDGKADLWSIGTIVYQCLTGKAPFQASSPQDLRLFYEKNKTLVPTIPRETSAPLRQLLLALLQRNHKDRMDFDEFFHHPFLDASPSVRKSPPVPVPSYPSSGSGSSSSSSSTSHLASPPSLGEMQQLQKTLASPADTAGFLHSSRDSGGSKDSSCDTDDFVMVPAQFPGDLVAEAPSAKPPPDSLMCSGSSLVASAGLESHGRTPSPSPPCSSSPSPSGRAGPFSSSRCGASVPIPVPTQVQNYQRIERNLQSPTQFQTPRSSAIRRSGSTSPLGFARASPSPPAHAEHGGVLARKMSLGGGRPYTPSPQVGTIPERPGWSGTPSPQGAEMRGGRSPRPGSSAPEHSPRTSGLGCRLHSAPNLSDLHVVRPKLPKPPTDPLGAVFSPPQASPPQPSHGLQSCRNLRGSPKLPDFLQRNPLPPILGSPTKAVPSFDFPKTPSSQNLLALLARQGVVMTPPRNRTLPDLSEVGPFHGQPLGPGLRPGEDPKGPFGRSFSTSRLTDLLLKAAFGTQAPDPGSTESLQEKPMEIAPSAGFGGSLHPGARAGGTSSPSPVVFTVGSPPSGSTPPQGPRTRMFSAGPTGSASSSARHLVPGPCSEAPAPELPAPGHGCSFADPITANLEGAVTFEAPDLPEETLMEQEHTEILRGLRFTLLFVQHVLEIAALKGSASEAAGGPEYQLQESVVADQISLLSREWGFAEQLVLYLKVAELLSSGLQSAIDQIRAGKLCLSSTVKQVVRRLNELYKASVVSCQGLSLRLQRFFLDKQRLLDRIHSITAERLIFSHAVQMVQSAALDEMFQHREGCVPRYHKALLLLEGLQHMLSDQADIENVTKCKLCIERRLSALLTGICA
Protocol: as §1

IRAK3 = IRAK3 (Homo sapiens, UniProt Q9Y616)
Protocol: as §1

CAMK1 = CAMK1 (Homo sapiens, UniProt Q14012)
CAMK1, sequence (Q14012 whole entry): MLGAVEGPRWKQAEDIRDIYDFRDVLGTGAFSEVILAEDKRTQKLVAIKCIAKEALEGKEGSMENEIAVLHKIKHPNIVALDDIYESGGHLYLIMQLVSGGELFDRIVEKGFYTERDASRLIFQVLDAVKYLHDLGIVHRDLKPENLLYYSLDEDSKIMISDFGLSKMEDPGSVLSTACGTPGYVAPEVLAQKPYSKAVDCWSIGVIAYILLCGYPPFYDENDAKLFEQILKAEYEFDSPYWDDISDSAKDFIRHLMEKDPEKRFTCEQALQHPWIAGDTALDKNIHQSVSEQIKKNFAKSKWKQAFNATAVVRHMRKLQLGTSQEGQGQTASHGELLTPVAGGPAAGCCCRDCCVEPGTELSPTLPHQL
Protocol: as §1

STK3 = STK3 (Homo sapiens, UniProt Q13188)
STK3, sequence (Q13188 whole entry): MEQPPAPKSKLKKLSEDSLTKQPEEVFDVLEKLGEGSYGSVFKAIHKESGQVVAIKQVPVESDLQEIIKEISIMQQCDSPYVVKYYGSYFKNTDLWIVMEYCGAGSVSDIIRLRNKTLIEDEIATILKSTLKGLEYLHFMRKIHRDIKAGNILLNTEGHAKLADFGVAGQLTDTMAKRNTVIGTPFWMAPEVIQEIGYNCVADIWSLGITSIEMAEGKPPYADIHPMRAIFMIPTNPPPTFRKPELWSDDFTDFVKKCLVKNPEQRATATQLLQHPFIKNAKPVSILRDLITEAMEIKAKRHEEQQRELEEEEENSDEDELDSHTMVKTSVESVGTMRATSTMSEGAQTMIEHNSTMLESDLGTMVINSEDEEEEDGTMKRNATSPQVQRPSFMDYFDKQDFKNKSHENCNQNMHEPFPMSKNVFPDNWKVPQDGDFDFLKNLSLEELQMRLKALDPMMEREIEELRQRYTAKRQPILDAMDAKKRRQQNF
Protocol: as §1

TBK1 = TBK1 (Homo sapiens, UniProt Q9UHD2)
Protocol: as §1

CSNK1D = CSNK1D (Homo sapiens, UniProt P48730)
Protocol: as §1

RPS6KA4 = RPS6KA4 (Homo sapiens, UniProt O75676)
RPS6KA4, sequence (O75676 whole entry): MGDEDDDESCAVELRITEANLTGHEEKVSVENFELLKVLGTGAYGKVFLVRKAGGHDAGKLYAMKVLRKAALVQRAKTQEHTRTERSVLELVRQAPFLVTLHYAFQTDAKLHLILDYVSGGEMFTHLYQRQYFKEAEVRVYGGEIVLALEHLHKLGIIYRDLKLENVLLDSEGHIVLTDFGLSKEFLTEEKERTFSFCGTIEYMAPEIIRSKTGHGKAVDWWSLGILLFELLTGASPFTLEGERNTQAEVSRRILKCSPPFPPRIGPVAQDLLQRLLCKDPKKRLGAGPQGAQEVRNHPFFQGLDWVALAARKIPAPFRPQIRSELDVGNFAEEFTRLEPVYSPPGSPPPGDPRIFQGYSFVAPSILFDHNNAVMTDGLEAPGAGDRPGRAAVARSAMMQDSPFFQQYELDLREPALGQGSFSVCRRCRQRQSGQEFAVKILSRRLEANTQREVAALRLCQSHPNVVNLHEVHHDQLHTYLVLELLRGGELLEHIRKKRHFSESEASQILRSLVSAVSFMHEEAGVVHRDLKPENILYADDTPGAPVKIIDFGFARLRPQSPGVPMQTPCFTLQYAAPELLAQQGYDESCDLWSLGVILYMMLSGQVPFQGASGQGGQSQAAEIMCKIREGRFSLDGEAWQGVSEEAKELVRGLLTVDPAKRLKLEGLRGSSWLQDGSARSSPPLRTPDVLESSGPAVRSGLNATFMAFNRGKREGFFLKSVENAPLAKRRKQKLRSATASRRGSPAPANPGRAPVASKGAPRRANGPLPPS
Protocol: as §1

CDKL5 = CDKL5 (Homo sapiens, UniProt O76039)
Protocol: as §1

PRKCE = PRKCE (Homo sapiens, UniProt Q02156)
PRKCE, sequence (Q02156 whole entry): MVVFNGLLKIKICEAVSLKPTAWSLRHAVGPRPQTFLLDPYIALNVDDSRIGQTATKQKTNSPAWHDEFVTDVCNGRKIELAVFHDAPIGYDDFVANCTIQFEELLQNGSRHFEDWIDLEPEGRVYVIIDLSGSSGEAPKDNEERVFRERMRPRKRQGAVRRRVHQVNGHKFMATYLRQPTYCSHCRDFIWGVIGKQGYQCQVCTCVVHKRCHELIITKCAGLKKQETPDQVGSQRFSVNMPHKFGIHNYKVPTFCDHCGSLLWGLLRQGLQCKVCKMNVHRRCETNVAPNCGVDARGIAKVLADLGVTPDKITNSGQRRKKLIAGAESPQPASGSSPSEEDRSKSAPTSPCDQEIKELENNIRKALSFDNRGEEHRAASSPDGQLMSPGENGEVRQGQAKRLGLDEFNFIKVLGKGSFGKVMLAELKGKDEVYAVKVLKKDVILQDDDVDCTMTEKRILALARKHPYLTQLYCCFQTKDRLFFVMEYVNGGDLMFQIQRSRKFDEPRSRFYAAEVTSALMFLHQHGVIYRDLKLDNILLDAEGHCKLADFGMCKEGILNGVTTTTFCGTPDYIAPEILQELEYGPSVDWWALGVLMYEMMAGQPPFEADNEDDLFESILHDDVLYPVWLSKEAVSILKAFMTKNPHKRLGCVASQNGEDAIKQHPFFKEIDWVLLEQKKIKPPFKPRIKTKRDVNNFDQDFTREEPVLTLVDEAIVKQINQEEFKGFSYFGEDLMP
Protocol: as §1

CLK4 = CLK4 (Homo sapiens, UniProt Q9HAZ1)
Protocol: as §1

FER = FER (Homo sapiens, UniProt P16591)
Protocol: as §1

LCK = LCK (Homo sapiens, UniProt P06239)
LCK, sequence (P06239 whole entry): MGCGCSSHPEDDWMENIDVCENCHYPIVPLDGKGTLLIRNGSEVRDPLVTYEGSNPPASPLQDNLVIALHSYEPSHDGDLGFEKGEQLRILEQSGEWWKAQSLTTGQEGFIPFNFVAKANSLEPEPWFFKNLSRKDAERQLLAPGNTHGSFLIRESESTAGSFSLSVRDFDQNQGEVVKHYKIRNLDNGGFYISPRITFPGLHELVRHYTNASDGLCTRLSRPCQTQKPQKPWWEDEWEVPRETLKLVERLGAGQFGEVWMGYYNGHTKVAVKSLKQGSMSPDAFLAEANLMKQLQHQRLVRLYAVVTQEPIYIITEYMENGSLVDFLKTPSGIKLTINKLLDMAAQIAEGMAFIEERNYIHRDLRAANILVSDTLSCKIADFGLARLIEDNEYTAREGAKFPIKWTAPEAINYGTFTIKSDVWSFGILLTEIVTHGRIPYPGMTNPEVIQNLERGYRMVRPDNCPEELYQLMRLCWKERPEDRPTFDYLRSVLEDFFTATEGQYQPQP
Protocol: as §1

MAPK11 = MAPK11 (Homo sapiens, UniProt Q15759)
Protocol: as §1

CDK4 = CDK4 (Homo sapiens, UniProt P11802)
CDK4, sequence (P11802 whole entry): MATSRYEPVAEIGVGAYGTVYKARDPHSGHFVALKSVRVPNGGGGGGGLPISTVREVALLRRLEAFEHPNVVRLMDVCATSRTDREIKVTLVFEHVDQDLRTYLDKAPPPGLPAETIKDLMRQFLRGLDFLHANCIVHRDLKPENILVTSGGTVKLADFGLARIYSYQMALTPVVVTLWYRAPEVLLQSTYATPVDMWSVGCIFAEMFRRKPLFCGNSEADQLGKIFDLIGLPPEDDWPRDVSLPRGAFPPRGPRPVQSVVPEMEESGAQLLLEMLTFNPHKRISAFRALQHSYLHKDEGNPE
Protocol: as §1

MAP4K1 = MAP4K1 (Homo sapiens, UniProt Q92918)
Protocol: as §1

inhibition at 1 µM (CDK20): -11%
inhibition at 1 µM (CDK18): 2%
inhibition at 1 µM (MELK): -2%
inhibition at 1 µM (ULK1): -1%
inhibition at 1 µM (IRAK3): 42%
inhibition at 1 µM (CAMK1): 7%
inhibition at 1 µM (STK3): 1%
inhibition at 1 µM (TBK1): -7%
inhibition at 1 µM (CSNK1D): -4%
inhibition at 1 µM (RPS6KA4): -11%
inhibition at 1 µM (CDKL5): 4%
inhibition at 1 µM (PRKCE): -6%
inhibition at 1 µM (CLK4): -19%
inhibition at 1 µM (FER): 16%
inhibition at 1 µM (LCK): 36%
inhibition at 1 µM (MAPK11): 0%
inhibition at 1 µM (CDK4): 4%
inhibition at 1 µM (MAP4K1): 14%
SMILES: C[C@@H](Oc1cc(-c2cnn(C3CCNCC3)c2)cnc1N)c1c(Cl)ccc(F)c1Cl [crizotinib]
